According to ChEMBL document CHEMBL5241116, “Isolation of Fluorescent Benzoxazines with Neuroprotective Activity from the Olive Weevil Pimelocerus perforatus” (J Nat Prod, 2022):
Active and inactive are the calls of the source. The rule behind the calls is not given here.

Tests used:
[1] = Neurotoxicity in human SH-SY5Y cells assessed as reduction in cell viability at 50 uM by WST-8 assay; format: toxicity, cell-based
[2] = tested on: SH-SY5Y; assay: Neuroprotective activity against H2O2-induced cell death in human SH-SY5Y cells pretreated with compound followed by H2O2 stimulation and measured after 24 hrs by WST-8 assay; format: functional, cell-based

OCCc1ccc(O)c(O)c1 [HYDROXYTYROSOL]
Activity [1]: Non-Toxic
Activity [2]: Active

O=C1C=C2Nc3cc(CCO)ccc3O[C@]23CCO[C@@]1(O)C3 (racemic)
Activity [1]: Non-Toxic
Activity [2]: Active

O=C1C=C2Nc3ccc(CCO)cc3O[C@]23CCO[C@@]1(O)C3 (racemic)
Activity [1]: Non-Toxic
Activity [2]: Active

Cc1c(C)c2c(c(C)c1O)CCC(C)(C(=O)O)O2 (configuration not stated)
Activity [2]: Active
